Earlier results in patent publication US6416793B1, “Formulations and use of controlled-release indole alkaloids” (BioResponse, L.L.C., priority 2000, dated 2002).
Where a name gives a salt, the structure may show the parent alone.

Experiments:
dogs = conditions: 0.4 mg/kg/day
[1] = tested on: obese and non-obese women; conditions: in vivo
[2] = tested on: overweight female subjects; conditions: three weeks
overweight men = conditions: 16.2 to 43.2 mg/day, six month period
[3] = tableted preparations of pure yohimbine

yohimbine
body weight (dogs): rapid loss of body weight | daily food intake (dogs; rapidly absorbed pure yohimbine): dramatic reduction in daily food intake | circulating levels of norepinephrine [1]: increase circulating levels of norepinephrine | continued weight loss versus placebo ([2]; 5 mg 4 times per day (20 mg/day), weight loss diet): Significantly greater continued weight loss | energy expenditure during exercise ([2]; 20 mg/day): greater energy expenditure in the treated group during exercise

O=C(O[C@@H]1Cc2c(O)cc(O)cc2O[C@@H]1c1cc(O)c(O)c(O)c1)c1cc(O)c(O)c(O)c1 [epigallocatechin gallate (EGCG), epigallocatechin gallate]
rate of weight loss (diet-restricted animals): increase the rate of weight loss in diet-restricted animals | resting energy expenditure (humans): increase resting energy expenditure in humans

COC(=O)[C@@H]1[C@H]2C[C@H]3c4[nH]c5ccccc5c4CCN3C[C@@H]2CC[C@@H]1O [yohimbine Hcl, (16 alpha, 17 alpha)-17-hydroxyyohimban-16-carboxylic acidmethyl ester hydrochloride]
additional weight loss versus placebo (overweight men): failed to show advantage in additional weight loss over placebo

COC(=O)[C@@H]1[C@H]2C[C@H]3c4[nH]c5ccccc5c4CCN3C[C@@H]2CC[C@@H]1O [yohimbine]
plasma half life [3]: less than 1 hour
